Test results: US12331048B2, “Pyrido-[3,4-d]pyridazine amine derivatives useful as NLRP3 inhibitors” (Ventus Therapeutics U.S., Inc., priority 2022, dated 2025)
In brackets after ≈: the same amount, converted by molar mass. Read-outs that look alike come from different tables or passages of the source.

Experiments:
[1] = Solubility in phosphate buffered solution (PBS, pH 7.4); format: physicochemical; settings: for solubility at 2 h: phosphate buffered solution (PBS), aqueous buffer, kinetic from dmso stock; for increase in solubility (PBS, pH 7.4) compared to Comparative Example 3: relative to Comparative Example 3 (6.7 uM)
Method: In additional embodiments, the solubility of compounds of the instant disclosure may be determined following known procedures, such as described in Alsenz and Kansy, Advanced Drug Delivery Reviews (2007) 59:546-567, and Wang et al. J Mass Spectrom. (2000) 35:71-76. For example, the kinetic solubility in physiologically relevant media, such as phosphate buffered solution (PBS, pH 7.4) or simulated gastric fluid (SGF), may be measured using serial dilution and two hour incubation period, followed by filtration, and reported in μM by LC-MS/MS. Thermodynamic solubility in physiologically relevant media may be measured by LC-MS/MS, after a twenty-four hour incubation, followed by filtration, and reported in mg/mL. Optimized solubility may be beneficial for manufacturing and further processing of the compound. Furthermore, optimized solubility allows for a more efficient in vitro analysis of the compound, including data collection around the compound's safety, drug-drug interactions, potency, selectivity, metabolism, and permeability. […]

[2] = Brain levels (kp and kpu,u) after oral administration; format: in vivo, CDI mice; settings: mice, 20 mpk PO; for Kp at 24 h / Kpu,u (unbound brain-to-plasma ratio): CDI, mouse, brain / plasma, po, 20 mg/kg; for Kpu,u (unbound brain-to-plasma ratio) / kpu,u (code): kp corrected with mouse plasma protein binding and mouse brain homogenate binding
Method: The in vivo total brain to plasma ratio was assessed in CDI mice after oral administration of the compound. Blood was collected at several timepoints up to 24 h, and transferred into plastic micro centrifuge tubes with EDTA-K2 as anticoagulant. Blood samples were centrifuged at 4000 g for 5 minutes at 4° C. to obtain plasma, then immediately frozen and stored at −75±15° C. prior to analysis. Animals were terminally anaesthetized with a rising concentration of CO2 gas at about 1 minute. At selected timepoints, whole brains were removed from the skull, rinsed in cold PBS to remove blood, dried with clean gauze, then frozen in liquid nitrogen and kept at −75±15° C. before analysis. At the time of analysis, brain samples were homogenized with PBS by tissue weight (g) to PBS volume (mL) ratio 1:3. Plasma and brain drug levels were quantified by LC/MS/MS on a AB Sciex Triple Quad 5500+ instrument, after separation on a HALO 160A ES-C18, 2.7 μm 2.1-50 mm column. Quantitation was performed using a calibration curve prepared in blank plasma or blank brain homogenate. The software WinNonlin (Phoenix™) was used for pharmacokinetic analysis from the concentrations versus time data, including the AUCinf and AUClast. The Kp ratio (total brain concentration over total plasma concentration) was calculated as (AUCtot,br)/(AUCtot,pl).
The unbound brain exposure was assessed as Kpuu, which is the free brain/free plasma concentration ratio (Cu,br/Cu,pl). The Cu,br/Cu,pl ratios were obtained from in vivo total brain to plasma ratios (Ctot,br/Ctot,pl) by using in vitro determined Fu,br and Fu,pl.
Plasma protein binding and brain homogenate protein binding were measured by equilibrium dialysis in a HTDialysis plate. The dialysis membranes were soaked in ultrapure water for 60 minutes to separate strips, then in 20% ethanol for 20 minutes, finally in dialysis buffer for 20 minutes. The dialysis set up was assembled according to the manufacturer's instruction. Each cell received 150 μL of plasma or brain homogenate spiked with 1 mM of compound, and dialyzed against an equal volume of dialysis buffer (PBS). The dialysis plate was sealed and incubated in an incubator at 37° C. with 5% CO2 at 100 rpm for 6 hours. At the end of incubation, compound concentration was measured in both chambers by LC-MS/MS on a Triple Quad™ 5500 from AB Inc after separation on a XSelect Hss T3 2.5μ (2.1×30 mm) column. Free fraction (Fu) was calculated as (Peak Area Ratio buffer chamber/Peak Area Ratio plasma chamber).
Kpuu was calculated as (AUCtot,br×Fu,br)/(AUCtot,pl×Fu,pl).
The below table also assigns each compound a code for kp and kpu,u values: A or B. According to the code. A represents a value of >0.3 and B represents a value of ≤0.3. […] The kpu,u was then calculated upon correcting this kp value with mouse plasma protein binding and mouse brain homogenates binding. A Kpu,u value >0.3 is brain penetrant, and Kpu,u value less than or equal to 0.3 is not brain penetrant. N.D.=not determined. The corresponding raw kp and kpu,u data is also included.

NLRP3 = molecular target: T1, NLRP3 (Homo sapiens, UniProt Q96P20); test: Human whole blood (hWB) NLRP3 assay; format: cell-based; settings: LPS priming 1 μg/ml, ATP activation, read-out: hWB IC50 (raw activity data)
T1 construct: endogenous in cells
Method: Heparin lithium coated tubes were used to collect blood from volunteers. Blood samples were distributed on 96 well plates using 90 μl per well. Priming was performed by adding 5 μl of LPS (O26:B6; Sigma L-2654) at a final concentration of 1 μg/ml for 4.5 hours in a humidified incubator with 37° C., 5% CO2. Thirty minutes prior to NLRP3 activation, 5 μl of a 20× compound solution or vehicle (2% DMSO) was added to each well and plates were incubated on a shaker (450 rpm) in a humidified incubator with 37° C., 5% CO2. Activation was then performed by adding 3.3 μl of a 31×ATP solution per well. At the end of the 30 minutes stimulation, the plates were centrifuged (800 g, 10 min. room temperature) and the plasma from each well was frozen at −80° C. […] levels in the supernatant were analyzed using a mesoscale discovery assay (MSD K151TUK) according to the manufacturers' instructions. Human whole blood was drawn from healthy volunteers after obtaining written informed consent.
Table D assigns each compound a code for potency in the human whole blood (hWB) NLRP3 Assay: A or B. According to the code. […] The corresponding raw activity data is also included.

[3] = whole brain AUC over 24 h divided by plasma AUC, read-out: kp (code)
[4] = whole brain AUC over 24 h divided by plasma AUC, read-out: kp (raw)

T1 sequence (Q96P20 whole entry): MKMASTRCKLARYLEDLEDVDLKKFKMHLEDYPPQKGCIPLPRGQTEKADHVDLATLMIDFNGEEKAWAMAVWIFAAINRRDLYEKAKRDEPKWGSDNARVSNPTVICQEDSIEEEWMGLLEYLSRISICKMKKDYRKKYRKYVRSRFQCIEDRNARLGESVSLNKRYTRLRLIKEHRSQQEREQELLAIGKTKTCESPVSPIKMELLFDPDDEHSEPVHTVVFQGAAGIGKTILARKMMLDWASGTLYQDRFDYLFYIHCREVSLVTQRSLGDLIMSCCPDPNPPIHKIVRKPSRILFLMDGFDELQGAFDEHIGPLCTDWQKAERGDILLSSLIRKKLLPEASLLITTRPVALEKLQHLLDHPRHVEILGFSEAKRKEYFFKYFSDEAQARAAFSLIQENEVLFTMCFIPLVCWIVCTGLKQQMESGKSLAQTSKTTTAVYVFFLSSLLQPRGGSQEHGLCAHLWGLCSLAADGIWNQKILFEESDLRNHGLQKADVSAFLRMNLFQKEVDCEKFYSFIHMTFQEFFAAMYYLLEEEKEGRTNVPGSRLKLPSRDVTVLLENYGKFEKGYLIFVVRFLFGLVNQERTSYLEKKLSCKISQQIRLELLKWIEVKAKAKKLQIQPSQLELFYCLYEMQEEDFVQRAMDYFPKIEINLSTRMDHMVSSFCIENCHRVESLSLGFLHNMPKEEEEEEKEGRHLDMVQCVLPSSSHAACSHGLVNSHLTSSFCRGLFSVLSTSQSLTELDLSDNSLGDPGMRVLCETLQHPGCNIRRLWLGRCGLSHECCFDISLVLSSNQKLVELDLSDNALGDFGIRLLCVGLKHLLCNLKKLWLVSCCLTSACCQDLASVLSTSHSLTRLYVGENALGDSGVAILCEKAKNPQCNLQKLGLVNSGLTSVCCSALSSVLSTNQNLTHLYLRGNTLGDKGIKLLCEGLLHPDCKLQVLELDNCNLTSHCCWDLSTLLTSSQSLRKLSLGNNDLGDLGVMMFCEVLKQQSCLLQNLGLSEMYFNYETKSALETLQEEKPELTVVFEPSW

| Compound | solubility at 2 h [1] | increase in solubility (PBS, pH 7.4) compared to Comparative Example 3 [1] | Kp at 24 h [2, 3] | Kp at 24 h [2, 4] | IC50 (NLRP3) | Kpu,u (unbound brain-to-plasma ratio) [2] | kpu,u (code) [2] | kp (code) ([2]; whole brain AUC over 24 h divided by plasma AUC) |
| --- | --- | --- | --- | --- | --- | --- | --- | --- |
| Cc1cc(C)c(-c2nnc(N[C@H]3COC(C)(C)C3)c3cnccc23)c(O)c1 (single isomer, unassigned) [Compound 24*] | 290 µM (≈ 106 µg/mL) | 43 fold | ≤ 0.3 | 0.05 | 330 nM |  |  |  |
| Cc1cc(O)c(-c2nnc(N[C@H]3COC(C)(C)C3)c3cnccc23)c(F)c1 (single isomer, unassigned) [Compound 21*] | 250 µM (≈ 92.1 µg/mL) | 37 fold | > 0.3 | 0.3 | 460 nM | 0.76 | A (A represents a value of >0.3) |  |
| CC1(C)C[C@H](Nc2nnc(-c3ccc(OC(F)F)cc3O)c3ccncc23)CO1 (single isomer, unassigned) [Compound 9*] | 45 µM (≈ 18.1 µg/mL) | 7 fold | > 0.3 | 0.4 | 260 nM | 0.63 | A (A represents a value of >0.3) | A (A represents a value of >0.3) |
| Cc1ccc(-c2nnc(N[C@H]3COC(C)(C)C3)c3cnccc23)c(O)c1 [Compound 5, (R)-2-(4-((5,5-dimethyltetrahydrofuran-3-yl)amino)pyrido[3,4-d]pyridazin-1-yl)-5-methylphenol] | 180 µM (≈ 63.1 µg/mL) | 27 fold | > 0.3 | 0.44 | 220 nM | 0.94 | A (A represents a value of >0.3) |  |
